# Assay results from patent CN107475146A, “一种链霉菌及其代谢产物粉蝶霉素类化合物在抗肾癌中的应用” (priority 2017, dated 2017).
# What was measured:
# Format in all cases: cell-based
# [1] = test system: 786-O human renal cancer cell line [786-O人肾癌细胞株]; assay: CCK-8 assay, inhibition of proliferation of 786-O human renal cancer cells
# [2] = test system: OS-RC-2 human renal cancer cell line [OS-RC-2人肾癌细胞株]; assay: CCK-8 assay, inhibition of proliferation of OS-RC-2 human renal cancer cells; settings: for IC50: CCK-8, 72 h
# [3] = test system: ACHN human renal cancer cell line [ACHN人肾癌细胞株]; assay: CCK-8 assay, inhibition of proliferation of ACHN human renal cancer cells; settings: 72 h
# [4] = test system: 786-O and ACHN cells [786-O和ACHN细胞]; assay: CCK-8 assay, 786-O and ACHN human renal cancer cells, result stated jointly for both lines
Compound,IC50 ([1]; 72 h),IC50 [2],also measured
IT-143-A [compound 4],61.1 µM,20.5 µM,–
Piericidin A2 [化合物2],50.3 µM,16.4 µM,IC50 [3]: 14.2 µM
"CC=C(C)C(O)C(C)C=C(C)C=CCC(C)=CCc1nc(OC)c(OC)c(O)c1C (centres unmarked) [化合物1, Piericidin A]",–,–,"IC50 ([4]; Homo sapiens, joint range over compounds 1, 2, 4 and 5, CCK-8, 72 h): 0.4 to 72 µM; IC50 ([1]; Homo sapiens, 786-0, 72 h): 29.9 µM; IC50 ([3]; Homo sapiens): 0.4 µM; IC50 ([2]; Homo sapiens): 5.16 µM"
Piericidin C2 [化合物3],> 100 µM,22.4 µM,–
IT-143-B [化合物5],72 µM,42.1 µM,–
Piericidin s3a [化合物6],> 100 µM,30.9 µM,selectivity ([4]; in words): 具有一定的选择性; inhibitory activity ([2]; in words): 具有抑制活性
